We go through 8 molecules from EPA's CvTdb concentration-time database.

Data set [1] has as its system Rat. The experiment in a line: concentration in plasma after dosing. The settings on record: dosed: Wyeth-14643, 1.0 mg/kg, oral, Male, Sprague-Dawley.
For data set [2], the system named is Rat. Briefly: concentration in heart after dosing. Particulars: 5 h; dosed: Bis 2-Chloroethoxy Methane; 20 mg/kg; iv; Male; F344.
Data set [3] deals with Rat. The experiment in a line: concentration in heart after dosing. Particulars: 20 min; dosed: Bis 2-Chloroethoxy Methane; 20 mg/kg; iv; Male; F344.
In data set [4] the test system is Rat. The experiment in a line: concentration in heart after dosing. Particulars: 5 h; dosed: Bis 2-Chloroethoxy Methane; 20 mg/kg; iv; Female; F344.
The subject of data set [5] is Rat. Briefly: concentration in heart after dosing. Particulars: 2 h; dosed: Bis 2-Chloroethoxy Methane; 20 mg/kg; iv; Male; F344.
The subject of data set [6] is Rat. The experiment in a line: concentration in liver after dosing. The settings on record: 20 min; dosed: Bis 2-Chloroethoxy Methane; 20 mg/kg; iv; Female; F344.
Data set [7] relates to Rat. The experiment in a line: concentration in thymus after dosing. Particulars: 40 min; dosed: Bis 2-Chloroethoxy Methane; 20 mg/kg; iv; Female; F344.
The test system of data set [8] is Rat. The experiment in a line: concentration in thymus after dosing. Particulars: 4 h; dosed: Bis 2-Chloroethoxy Methane; 20 mg/kg; iv; Male; F344.
For data set [9], the system named is Rat. The experiment in a line: concentration in plasma after dosing. Particulars: 3 h; dosed: Bis 2-Chloroethoxy Methane; 20 mg/kg; iv; Male; F344.
The subject of data set [10] is Rat. The experiment in a line: concentration in thymus after dosing. The settings on record: 7 h; dosed: Bis 2-Chloroethoxy Methane; 20 mg/kg; iv; Male; F344.
Data set [11] deals with Rat. The experiment in a line: concentration in thymus after dosing. The settings on record: 20 min; dosed: Bis 2-Chloroethoxy Methane; 20 mg/kg; iv; Female; F344.
The subject of data set [12] is Rat. Briefly: concentration in plasma after dosing. Particulars: 4 h; dosed: Bis 2-Chloroethoxy Methane; 20 mg/kg; iv; Female; F344.
The test system of data set [13] is Rat. Briefly: concentration in plasma after dosing. Particulars: 2 h; dosed: Bis 2-Chloroethoxy Methane; 20 mg/kg; iv; Female; F344.
The subject of data set [14] is Rat. The experiment in a line: concentration in thymus after dosing. The settings on record: 6 h; dosed: Bis 2-Chloroethoxy Methane; 20 mg/kg; iv; Female; F344.
Data set [15] concerns Rat. Briefly: concentration in brain after dosing. Particulars: 12 h; dosed: Fluorotelomer alcohol 8+2; 24 mg/kg; oral; Male; Harlan Sprague Dawley.
In data set [16] the test system is Rat. Briefly: concentration in plasma after dosing. Particulars: dosed: Fluorotelomer alcohol 8+2, 40 mg/kg, iv, Male, F344.
Data set [17] concerns Rat. Briefly: concentration in plasma after dosing. The settings on record: dosed: Fluorotelomer alcohol 8+2, 40 mg/kg, iv, Female, Harlan Sprague-Dawley.
Data set [18] relates to Rat. Briefly: concentration in plasma after dosing. Particulars: 0.5 h; dosed: Di-n-butyl phthalate; 100 mg/kg; oral; Male; Sprague-Dawley.
Data set [19] has as its system Rat. The experiment in a line: concentration in brain after dosing. Particulars: 24 h; dosed: Perfluorodecanoic acid; 10 mg/kg; oral; Female; Harlan Sprague Dawley.
The test system of data set [20] is Rat. Briefly: concentration in brain after dosing. The settings on record: 1848 h; dosed: Perfluorodecanoic acid; 10 mg/kg; oral; Female; Harlan Sprague Dawley.
Data set [21] relates to Rat. Briefly: concentration in liver after dosing. The settings on record: 1 h; dosed: Perfluorodecanoic acid; 10 mg/kg; oral; Male; Harlan Sprague Dawley.
For data set [22], the system named is Rat. The experiment in a line: concentration in plasma after dosing. The settings on record: dosed: Perfluorodecanoic acid, 2 mg/kg, iv, Male, F344.
In data set [23] the test system is Rat. The experiment in a line: concentration in kidney after dosing. Particulars: 864 h; dosed: Perfluorodecanoic acid; 10 mg/kg; oral; Male; Harlan Sprague Dawley.
Data set [24] has as its system Rat. The experiment in a line: concentration in plasma after dosing. The settings on record: dosed: Perfluorodecanoic acid, 2 mg/kg, iv, Male, F344. This is another data set of the same source.
The subject of data set [25] is Rat. The experiment in a line: concentration in plasma after dosing. Particulars: dosed: Perfluorodecanoic acid, 2 mg/kg, iv, Male, F344. This is another data set of the same source.
In data set [26] the test system is Rat. The experiment in a line: concentration in kidney after dosing. Particulars: 24 h; dosed: Perfluorodecanoic acid; 10 mg/kg; oral; Female; Harlan Sprague Dawley.
Data set [27] has as its system Rat. Briefly: concentration in plasma after dosing. The settings on record: dosed: Perfluorodecanoic acid, 2 mg/kg, oral, Male, Harlan Sprague Dawley.
Data set [28] deals with Rat. Briefly: concentration in plasma after dosing. The settings on record: 18 h; dosed: Primidone; 80 mg/kg; oral; Female; F344.
In data set [29] the test system is Rat. The experiment in a line: concentration in plasma after dosing. Particulars: 3 h; dosed: Primidone; 30 mg/kg; oral; Male; F344.
In data set [30] the test system is Rat. The experiment in a line: concentration in heart after dosing. Particulars: 10 min; dosed: Thiodiglycolic Acid; 20 mg/kg; iv; Female; Harlan Sprague Dawley.
The test system of data set [31] is Rat. The experiment in a line: concentration in liver after dosing. Particulars: 10 min; dosed: Thiodiglycolic Acid; 20 mg/kg; iv; Female; Harlan Sprague Dawley.
Data set [32] has as its system Rat. The experiment in a line: concentration in liver after dosing. Particulars: 2 h; dosed: Thiodiglycolic Acid; 20 mg/kg; iv; Male; Harlan Sprague Dawley.
The subject of data set [33] is Rat. The experiment in a line: concentration in plasma after dosing. The settings on record: 10 min; dosed: Thiodiglycolic Acid; 20 mg/kg; iv; Male; F344.
The subject of data set [34] is Rat. The experiment in a line: concentration in thymus after dosing. Particulars: 10 min; dosed: Thiodiglycolic Acid; 20 mg/kg; iv; Female; Harlan Sprague Dawley.
For data set [35], the system named is Rat. Briefly: concentration in plasma after dosing. Particulars: 40 min; dosed: Thiodiglycolic Acid; 20 mg/kg; iv; Female; Harlan Sprague Dawley.
Data set [36] deals with Rat. Briefly: concentration in plasma after dosing. Particulars: 10 min; dosed: Thiodiglycolic Acid; 20 mg/kg; iv; Female; Harlan Sprague Dawley.
The subject of data set [37] is Rat. The experiment in a line: concentration in plasma after dosing. The settings on record: dosed: dichloroacetic acid, 100 mg/kg, oral, Male, F344.
For data set [38], the system named is Rat. The experiment in a line: concentration in plasma after dosing. The settings on record: 5 min; dosed: dichloroacetic acid; 10 mg/kg; oral; Male; Harlan Sprague Dawley.

As for `Cc1cccc(Nc2cc(Cl)nc(SCC(=O)O)n2)c1C`, the concentration in plasma in the data set with Rat [1] (0.5 h) was 1180 ng/mL; in the data set with Rat [1] (6 h) it was 202 ng/mL.
With `ClCCOCOCCCl` [Bis 2-Chloroethoxy Methane], the concentration in heart in the data set with Rat [2] was 42.1 ng/g; with Rat [3] it was 6660 ng/g; with Rat [4], 27.4 ng/g; in the data set on Rat [5], 450 ng/g. The concentration in liver in the data set on Rat [6] is 1330 ng/g. Moreover, the concentration in thymus with Rat [7] came out at 6590 ng/g; with Rat [8], 72.9 ng/g; in the data set with Rat [10], 15.2 ng/g; in the data set with Rat [11], 16300 ng/g; in the data set on Rat [14] it was 61.4 ng/g. The results for the concentration in plasma in the data set with Rat [9], with Rat [12] and with Rat [13] were 123 ng/mL, 63.4 ng/mL and 188 ng/mL, respectively.
In turn, `OCCC(F)(F)C(F)(F)C(F)(F)C(F)(F)C(F)(F)C(F)(F)C(F)(F)C(F)(F)F` [Fluorotelomer alcohol 8+2] showed a concentration in brain in the data set with Rat [15] of 151 ng/g. In addition, the concentration in plasma came to 14200 ng/mL in the data set on Rat [16] (0.25 h), 186 ng/mL in the data set on Rat [16] (6 h), 4710 ng/mL with Rat [17] (0.75 h) and 55.5 ng/mL in the data set with Rat [17] (12 h).
With `CCCCOC(=O)c1ccccc1C(=O)O` [Mono-n-butyl phthalate], the concentration in plasma in the data set on Rat [18] was determined as 29700 ng/mL.
Take `O=C(O)C(F)(F)C(F)(F)C(F)(F)C(F)(F)C(F)(F)C(F)(F)C(F)(F)C(F)(F)C(F)(F)F` [Perfluorodecanoic acid]: the concentration in brain with Rat [19] was determined as 2560 ng/g; with Rat [20] it was 680 ng/g. The molecule also registered a concentration in liver in the data set on Rat [21] of 50300 ng/g. The concentration in plasma in the data set on Rat [22] (6 h) turned out to be 6360 ng/mL; in the data set with Rat [22] (864 h), 1550 ng/mL; in the data set on Rat [24] (5 min), 7460 ng/mL; with Rat [24] (192 h) it was 3420 ng/mL; with Rat [24] (2520 h), 283 ng/mL; in the data set on Rat [25] (1 h), 6890 ng/mL. For the same molecule, the concentration in plasma with Rat [25] (528 h) stood at 4990 ng/mL; in the data set with Rat [25] (3360 h), 662 ng/mL; in the data set with Rat [27] (1 h), 4030 ng/mL; with Rat [27] (192 h) it was 4670 ng/mL; in the data set on Rat [27] (2520 h) it was 645 ng/mL. Besides, the concentration in kidney stood at 6720 ng/g in the data set on Rat [23] and 67300 ng/g with Rat [26].
Turning to `CCC1(c2ccccc2)C(=O)NC(=O)NC1=O` [Phenobarbital], the concentration in plasma in the data set on Rat [28] was 1900 ng/mL; with Rat [29], 2460 ng/mL.
In the data set on Rat [30], `O=C(O)CSCC(=O)O` [Thiodiglycolic Acid] gave a concentration in heart of 8770 ng/g. The values for the concentration in liver with Rat [31] and in the data set with Rat [32] were 10200 ng/g and 80300 ng/g, respectively. In addition, the concentration in plasma in the data set with Rat [33] turned out to be 25400 ng/mL; with Rat [35] it was 4780 ng/mL; in the data set on Rat [36] it was 40400 ng/mL. Besides, the concentration in thymus with Rat [34] is 10100 ng/g.
Turning to `O=C(O)C(Cl)Cl` [dichloroacetic acid], the values for the concentration in plasma in the data set with Rat [37] (5 min), in the data set with Rat [37] (2 h) and in the data set on Rat [38] were 7120 ng/mL, 41300 ng/mL and 430 ng/mL, respectively.
